Results: ChEMBL document CHEMBL2331144, “Synthesis and anticancer activity of analogues of phenstatin, with a phenothiazine A-ring, as a new class of microtubule-targeting agents” (Bioorg Med Chem Lett, 2013)

What was measured:
T47D = test: Growth inhibition of human T47D cells at 10 uM after 48 hrs by sulforhodamine B assay; type: functional; details: read-out: GI
SF-295 = test: Growth inhibition of human SF295 cells at 10 uM after 48 hrs by sulforhodamine B assay; type: functional; details: SF-295, 48 h, read-out: GI
RXF 393 = test: Growth inhibition of human RXF393 cells at 10 uM after 48 hrs by sulforhodamine B assay; type: functional; details: RXF 393, 48 h, read-out: GI
UO-31 = test: Growth inhibition of human UO31 cells at 10 uM after 48 hrs by sulforhodamine B assay; type: functional; details: UO-31, 48 h, read-out: GI
UACC-62 = test: Growth inhibition of human UACC62 cells at 10 uM after 48 hrs by sulforhodamine B assay; type: functional; details: UACC-62, 48 h, read-out: GI
[1] = Growth inhibition of human NCI-ADR-RES cells at 10 uM after 48 hrs by sulforhodamine B assay; type: functional; details: read-out: GI
SNB-75 = test: Growth inhibition of human SNB75 cells at 10 uM after 48 hrs by sulforhodamine B assay; type: functional; details: SNB-75, 48 h, read-out: GI
HOP-92 = test: Growth inhibition of human HOP92 cells at 10 uM after 48 hrs by sulforhodamine B assay; type: functional; details: HOP-92, 48 h, read-out: GI
MDA-MB-435 = test: Growth inhibition of human MDA-MB-435 cells at 10 uM after 48 hrs by sulforhodamine B assay; type: functional; details: MDA-MB-435, 48 h, read-out: GI
CAKI-1 = test: Growth inhibition of human CAKI-1 cells at 10 uM after 48 hrs by sulforhodamine B assay; type: functional; details: CAKI-1, 48 h, read-out: GI
HOP-62 = test: Growth inhibition of human HOP62 cells at 10 uM after 48 hrs by sulforhodamine B assay; type: functional; details: HOP-62, 48 h, read-out: GI
MDA-MB-468 = test: Growth inhibition of human MDA-MB-468 cells at 10 uM after 48 hrs by sulforhodamine B assay; type: functional; details: MDA-MB-468, 48 h, read-out: GI
MOLT-4 = test: Growth inhibition of human MOLT4 cells at 10 uM after 48 hrs by sulforhodamine B assay; type: functional; details: MOLT-4, 48 h, read-out: GI
HCT-116 = test: Growth inhibition of human HCT116 cells at 10 uM after 48 hrs by sulforhodamine B assay; type: functional; details: HCT-116, 48 h, read-out: GI
MCF7 = test: Growth inhibition of human MCF7 cells at 10 uM after 48 hrs by sulforhodamine B assay; type: functional; details: MCF7, 48 h, read-out: GI
HCT-15 = test: Growth inhibition of human HCT15 cells at 10 uM after 48 hrs by sulforhodamine B assay; type: functional; details: HCT-15, 48 h, read-out: GI
HL-60(TB) = test: Growth inhibition of human HL-60(TB) cells at 10 uM after 48 hrs by sulforhodamine B assay; type: functional; details: HL-60, 48 h, read-out: GI
Malme-3M = test: Growth inhibition of human MALME-3M cells at 10 uM after 48 hrs by sulforhodamine B assay; type: functional; details: read-out: GI
CCRF-CEM = test: Growth inhibition of human CCRF-CEM cells at 10 uM after 48 hrs by sulforhodamine B assay; type: functional; details: read-out: GI
OVCAR-4 = test: Growth inhibition of human OVCAR4 cells at 10 uM after 48 hrs by sulforhodamine B assay; type: functional; details: OVCAR-4, 48 h, read-out: GI
LOX IMVI = test: Growth inhibition of human LOXIMVI cells at 10 uM after 48 hrs by sulforhodamine B assay; type: functional; details: read-out: GI
MDA-MB-231 = test: Growth inhibition of human MDA-MB-231 cells at 10 uM after 48 hrs by sulforhodamine B assay; type: functional; details: MDA-MB-231, 48 h, read-out: GI
Ovis aries = species: Ovis aries; test: Inhibition of sheep brain tubulin polymerization at 100 uM using DAPI by fluorimetry
SK-MEL-5 = test: Growth inhibition of human SK-MEL-5 cells at 10 uM after 48 hrs by sulforhodamine B assay; type: functional; details: SK-MEL-5, 48 h, read-out: GI
NCI-H522 = test: Growth inhibition of human NCI-H522 cells at 10 uM after 48 hrs by sulforhodamine B assay; type: functional; details: NCI-H522, 48 h, read-out: GI
RPMI-8226 = test: Growth inhibition of human RPMI8226 cells at 10 uM after 48 hrs by sulforhodamine B assay; type: functional; details: RPMI-8226, 48 h, read-out: GI
PC-3 = test: Growth inhibition of human PC3 cells at 10 uM after 48 hrs by sulforhodamine B assay; type: functional; details: PC-3, 48 h, read-out: GI
786-0 = test: Growth inhibition of human 786-0 cells at 10 uM after 48 hrs by sulforhodamine B assay; type: functional; details: 786-0, 48 h, read-out: GI
COLO 205 = test: Growth inhibition of human COLO205 cells at 10 uM after 48 hrs by sulforhodamine B assay; type: functional; details: COLO 205, 48 h, read-out: GI
K562 = test: Growth inhibition of human K562 cells at 10 uM after 48 hrs by sulforhodamine B assay; type: functional; details: K562, 48 h, read-out: GI
KM12 = test: Growth inhibition of human KM12 cells at 10 uM after 48 hrs by sulforhodamine B assay; type: functional; details: KM12, 48 h, read-out: GI

Compound: O=C(c1cnc2ccccn12)N1c2ccccc2Sc2ccccc21
- inhibition of growth at 10 µM (T47D): 19.2%
- inhibition of growth at 10 µM (SF-295): 16%
- inhibition of growth at 10 µM (RXF 393): 0%
- inhibition of growth at 10 µM (UO-31): 0%
- inhibition of growth at 10 µM (UACC-62): 39.3%
- inhibition of growth at 10 µM [1]: 12.8%
- inhibition of growth at 10 µM (SNB-75): 0%
- inhibition of growth at 10 µM (HOP-92): 33.8%
- inhibition of growth at 10 µM (MDA-MB-435): 6.7%
- inhibition of growth at 10 µM (CAKI-1): 5.9%
- inhibition of growth at 10 µM (HOP-62): 3.4%
- inhibition of growth at 10 µM (MDA-MB-468): 7.3%
- inhibition of growth at 10 µM (MOLT-4): 0%
- inhibition of growth at 10 µM (HCT-116): 17.8%
- inhibition of growth at 10 µM (MCF7): 4.6%
- inhibition of growth at 10 µM (HCT-15): 17.3%
- inhibition of growth at 10 µM (HL-60(TB)): 38.1%
- inhibition of growth at 10 µM (Malme-3M): 2%
- inhibition of growth at 10 µM (CCRF-CEM): 3.1%
- inhibition of growth at 10 µM (OVCAR-4): 0%
- inhibition of growth at 10 µM (LOX IMVI): 12%
- inhibition of growth at 10 µM (MDA-MB-231): 7.4%
- inhibition (Ovis aries): 38%
- inhibition of growth at 10 µM (SK-MEL-5): 14.6%
- inhibition of growth at 10 µM (NCI-H522): 6.6%
- inhibition of growth at 10 µM (RPMI-8226): 36%
- inhibition of growth at 10 µM (PC-3): 45.1%
- inhibition of growth at 10 µM (786-0): 5.3%
- inhibition of growth at 10 µM (COLO 205): 19.1%
- inhibition of growth at 10 µM (K562): 2.3%
- inhibition of growth at 10 µM (KM12): 14%
